# Experimental data: US8722027B2, “Method for preparing broussonetia kazinoki extract” (Amorepacific Corporation, priority 2010, dated 2014)
# Key:
# mushroom tyrosinase = experiment: Inhibition of tyrosinase activity (L-tyrosine substrate); assay type: biochemical
# Experimental: First, as test samples, arbutin and the composition of Preparation Example 6 were prepared at various concentrations, and an enzyme was added thereto in an amount corresponding to 10 units, after which 0.1M phosphate buffer was added thereto to a final volume of 100 μl. 100 μl of 0.03% L-tyrosine substrate solution was added thereto, and then immediately, the absorbance at 475 nm was measured. Then, the mixture was allowed to react at 37° C. for 10 minutes, after which it was placed on ice to stop the reaction, and the absorbance was measured again.
# B16 melanoma cells [1] = experiment: Cytotoxicity measurement (MTT assay); assay type: cell-based, mouse
# Experimental: (§1) B16 melanoma cells from C57BL/6J (black, a/a) mouse melanoma were purchased from the Cell Line Bank. The cells were cultured in DMEM medium containing 10% fetal bovine serum (LONZA), 50 U/ml of penicillin and 50 μg/ml of […] streptomycin under the conditions of 37° C. and 10% CO2.
# B16 melanoma cells were seeded in a 96-well plate at a density of 1×10^4 cells/well and cultured for 1 day. The medium was replaced with fresh medium containing each of arbutin and various concentration of the composition of Preparation Example 6, and the cells were cultured again for 24 hours. 50 μl of an MIT solution obtained by dissolving MIT in cell culture medium at a concentration of 2 mg/ml was added to each well, and medium was added to each well to a final volume of 200 μl, after which the cells were incubated for 3-4 hours. The medium was removed, and the produced formazan crystals were dissolved in 150 μl of DMSO, after which the absorbance of the formazan solution was measured at 540 nm. The measured absorbance was expressed as a percentage relative to the control (not treated with the test material) to evaluate whether the test sample has cytotoxicity.
# B16 melanoma cells [2] = experiment: Inhibition of melanin production (α-MSH stimulated); assay type: cell-based, mouse; settings: 100 μg/ml, 1 μM α-MSH
# Experimental: as §1
# B16 melanoma cells were seeded in a 24-well plate at a density of 4×10^4 cells/well and cultured overnight so as to adhere well to the plate. Then, medium containing 1 μM α-MSH for promoting melanin production and each concentration of the test sample of Preparation Example 6 or arbutin was added to each well. The plate was incubated for 72 hours, and then 200 μl of the cell culture medium was taken and the absorbance at 405 nm was measured. Based on the measurement, the amount of melanin was calculated. The calculated amount of melanin was expressed as a percentage relative to the control (not treated with the test material), and the results are shown in Table 9 below.
# tyrosinase [3] = experiment: Tyrosinase inhibitory effect (method of Test Example 1-2); assay type: biochemical; settings: 50 mg sample in 100 ml ethanol, diluted 10-fold; 50 μl sample solution; 37° C., 10 minutes; absorbance 490 nm
# Experimental: 50 mg of a sample to be evaluated for tyrosinase inhibitory activity was dissolved in ethanol to make 100 ml of a solution. 10 ml of the solution was taken, and ethanol was added thereto to make 100 ml of a sample solution. 500 μl of a substrate solution, 450 μl of purified water and 50 μl of the sample solution are added to and mixed with 500 μl of buffer, and 50 μl of an enzyme (tyrosinase) solution is added to the mixture. The resulting mixture is allowed to react at 37° C. for 10 minutes, and then immediately allowed to stand on ice for 5 minutes, and the absorbance at 490 nm is measured. The tyrosinase inhibitory effect of the sample is evaluated based on the absorbance of the sample compared to the absorbance of a blank sample.
# [4] = Partition coefficient in two-phase solvent system; assay type: physicochemical; settings: hexane/ethyl acetate/methanol/water 5/5/5/2
# Experimental: The partition coefficient of kazinol C was measured in the following manner First, 1 mg of the extract of Example 3 was placed in a 10-ml test tube, and 2 ml of each of the upper layer solution and lower layer solution of a two-phase solution system, which reached equilibrium, was added thereto, and the mixture was shaken intensively for 1 minute. After the two phases have reached equilibrium, 100 μl of each of the upper layer solution and the lower layer solution was taken, dried, dissolved in 1 ml of ethanol, and analyzed by HPLC. The value obtained by dividing the amount of kazinol C in the upper layer solution by the amount of kazinol C in the lower layer solution was determined as partition coefficient.
# tyrosinase [5] = biological target: T1, tyrosinase (Homo sapiens, UniProt P14679); settings: compared to kojic acid; known; cited from earlier work
# T1 sequence (P14679 19-529): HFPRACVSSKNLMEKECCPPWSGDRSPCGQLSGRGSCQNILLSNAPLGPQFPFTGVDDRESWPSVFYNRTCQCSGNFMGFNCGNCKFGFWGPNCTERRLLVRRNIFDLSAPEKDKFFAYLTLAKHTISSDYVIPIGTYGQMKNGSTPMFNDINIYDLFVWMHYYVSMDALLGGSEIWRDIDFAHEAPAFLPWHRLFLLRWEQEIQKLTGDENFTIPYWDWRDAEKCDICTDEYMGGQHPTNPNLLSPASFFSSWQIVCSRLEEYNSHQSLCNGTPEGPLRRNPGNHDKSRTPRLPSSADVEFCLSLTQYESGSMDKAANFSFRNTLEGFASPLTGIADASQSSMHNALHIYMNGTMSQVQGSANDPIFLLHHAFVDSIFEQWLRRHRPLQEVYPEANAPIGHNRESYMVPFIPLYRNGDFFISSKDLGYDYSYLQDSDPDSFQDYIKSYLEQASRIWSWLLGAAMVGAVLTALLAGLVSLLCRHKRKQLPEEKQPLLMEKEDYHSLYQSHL
smiles,measurement,setting,value
"OC[C@H]1O[C@@H](Oc2ccc(O)cc2)[C@H](O)[C@@H](O)[C@@H]1O [Arbutin, arbutin]",Inhibition (%) of tyrosinase activity,mushroom tyrosinase; 125 μg/ml,38.1%
same,Inhibition (%) of tyrosinase activity,mushroom tyrosinase; 250 μg/ml,56.5%
same,Inhibition (%) of tyrosinase activity,mushroom tyrosinase; 500 μg/ml,87.7%
same,"IC50 (μg/ml), tyrosinase activity","mushroom tyrosinase; mushroom tyrosinase 10 units, 37° C., 10 minutes",209.6 µg/mL
same,% relative to control (MTT absorbance),"B16 melanoma cells [1]; 100 μg/ml, 24 hours",95.1 ± 4.8%
same,Toxicity (%),"B16 melanoma cells [1]; 100 μg/ml, 24 hours",4.9%
same,Cytotoxicity (in words),B16 melanoma cells [1]; at a concentration of 100 μg/ml,no cytotoxicity
same,Inhibition (%) of melanin production,B16 melanoma cells [2]; 72 hours,33.7%
same,Melanin % relative to control,B16 melanoma cells [2]; 72 hours,66.3 ± 4.7%
same,inhibition at 100 µg/mL,"B16 melanoma cells [2]; Mus musculus, B16, 72 h",21.2%
"O=c1cc(CO)occ1O [Control, kojic acid]",Tyrosinase inhibitory effect (%),tyrosinase [3],80%
C=CC(C)(C)c1cc(CCCc2cc(O)c(O)c(CC=C(C)C)c2CC=C(C)C)c(O)cc1O [kazinol C],Partition coefficient (upper layer / lower layer),[4],0.997
same,Tyrosinase inhibitory effect (in words),tyrosinase [5],excellent tyrosinase inhibitory effect compared to kojic acid
